For one assay, the target named is α1-adrenoceptor. The experiment in a line: α1-adrenoceptor radioligand binding assay ([3H]-prazosin, rat cerebral cortex). The following applies: rat cortex tissue. Here is the method: (§1) The α1-, α2-, and β1-adrenoceptor radioligand binding assay was carried out on the rat cerebral cortex. [^3H]-prazosin (19.5 Ci/mmol, α1-adrenoceptor), [^3H]-clonidine (70.5 Ci/mmol, α2-adrenoceptor), and [^3H]-CGP-12177 (48 Ci/mmol, β1-adrenergic receptor) were used as specific ligands. The brains were homogenized using ULTRA-TURRAX homogenizer in 10 mL of an ice-cold 50 mM Tris–HCl buffer (pH 7.6). Homogenates were centrifuged at 20,000× g for 20 min (0–4 °C). Next, the cell pellet was resuspended in the Tris–HCl buffer and centrifuged again. Radioligand binding assays were performed in plates (MultiScreen/Millipore). The final incubation mixture (volume 300 μL) consisted of 240 μL of the tissue suspension, 30 μL of radioligand solution, and 30 μL of the buffer containing 7–8 concentrations of the tested compound. […] The incubation was terminated by rapid filtration through Whatman GF/C filters using a vacuum manifold (Millipore). The filters were then washed twice with the assay buffer and placed in scintillation vials with a liquid scintillation cocktail. Radioactivity was measured in a WALLAC 1409 DSA liquid scintillation counter (Perkin Elmer, Waltham, MA, USA). All the assays were made in duplicates and the inhibitory constants (Ki) were estimated.

For another assay, the target named is α2-adrenoceptor. The assay is described as follows: α2-adrenoceptor radioligand binding assay ([3H]-clonidine, rat cerebral cortex). As to the method: as §1, with “[^3H]-prazosin (19.5 Ci/mmol, α1-adrenoceptor), [^3H]-clonidine (70.5 Ci/mmol, α2-adrenoceptor), and [^3H]-CGP-12177 (48 Ci/mmol, β1-adrenergic receptor) were used as specific ligands.” left out, “Radioactivity was measured in a WALLAC 1409 DSA liquid scintillation counter (Perkin Elmer, Waltham, MA, USA).” left out

Another assay deals with normotensive rats. The experiment in a line: Influence on blood pressure in normotensive rats. The format is in vivo, rat. Here is the method: Normotensive rats were anesthetized with thiopental (75 mg/kg ip). The right carotid artery was cannulated with a polyethylene tube filled with heparin solution to allow pressure measurements, using a Datamax apparatus (Columbus Instruments, Columbus, OH, USA). The tested compound was administered intraperitoneally after 15 min of stabilization period and its effect on blood pressure was measured.

The next assay concerns α1-adrenergic receptors. The assay is described as follows: Influence on blood vasopressor response to adrenaline, noradrenaline and methoxamine in rats. The format is in vivo. The following applies: rat, 1.25 mg/kg iv, 5 min after administration. As to the method: To establish agonistic or antagonistic toward α1-adrenergic receptors, we studied the influence of the studied compound on the pressor response to adrenaline (2 µg/kg), noradrenaline (2 µg/kg), and methoxamine (150 µg/kg). Normotensive rats were anesthetized with thiopental (75 mg/kg ip). The right carotid artery was cannulated with a polyethylene tube filled with heparin solution to allow pressure measurements, using a Datamax apparatus (Columbus Instruments, Columbus, OH, USA). The experiment was carried out after 15 min of the stabilization period. The pressor response to adrenaline, noradrenaline, and methoxamine was measured before (control) and 5 min after the administration of the tested compound.

The test system of another assay is D2 receptors. Set-up: method as in PMID 34451841. The conditions noted are these: previous studies; cited from earlier work.
In another assay the test system is mice. Set-up: method as in PMID 34451841. The conditions noted are these: previous studies; cited from earlier work.
The mark [1] stands for this setting: 1.25 mg/kg ip, from 5 min after injection.

Turning to `CCC(CN1CCN(c2ccccc2OC)CC1)NCCCOc1c(C)cccc1C.Cl.Cl` (stereo not shown) [HBK-10, N-(3-(2,6-dimethylphenoxy)propyl)-1-(4-(2-methoxyphenyl)piperazin-1-yl)butan-2-amine dihydrochloride], the “Adrenergic Receptors—pKi α1” value at α1-adrenoceptor turned out to be 8.55. In addition, the “Adrenergic Receptors—pKi α2” value at α2-adrenoceptor (rat cortex tissue, [3H]-clonidine) was 5.72. Moreover, in the assay with α2-adrenoceptor (rat cortex, α1 vs α2), the “affinity towards α2-adrenoceptor lower compared with the α1 receptor” value is recorded as “over 600 fold”. Further, in the assay on normotensive rats (0.625 mg/kg ip), the “effect on diastolic blood pressure” value is recorded as “did not affect” and the “effect on systolic blood pressure” value is listed as “did not affect”. In the assay on normotensive rats (setting [1]), the “reduction of diastolic blood pressure” value is on record as 12.5–18.3% and the “reduction of systolic blood pressure” value was 11.2–18.3%. Also, in the assay on normotensive rats (single ip administration), the “dose reducing blood pressure relative to median effective dose in adrenaline-induced model” value amounted to 10 fold. The “attenuation of adrenaline pressor response” value with α1-adrenergic receptors (adrenaline 2 μg/kg) is on record as 77.2%. The “attenuation of methoxamine pressor response” value with α1-adrenergic receptors (methoxamine 150 μg/kg) is given as 77.4%. The “attenuation of noradrenaline pressor response” value in the assay on α1-adrenergic receptors (noradrenaline 2 μg/kg) worked out at 32.5%. Further, the “properties at D2 receptors” value in the assay with D2 receptors is “antagonistic properties”. Besides, in the assay on mice, the antidepressant-like effect entry is reported as “antidepressant-like effect”.

(Values after PMC9609429 (Pharmaceuticals, 2022).)
